A word on the EC50: it is the concentration at which the effect is half-maximal. As usually defined, the Emax is the maximal effect, on the per cent scale that the assay sets.

The structures appear in SMILES notation. *1 amine or outer side, *2 acyl side, *3 side chain or, on linkers, in order; H or OH if unused. Where a SMILES comes first, the peptide text is derived from it. Side-chain parts run from the residue outwards. [ ]: non-standard residue; d: D form. The star is where a group is joined. Isobutyryl(2-(3-CN-5-F-Ph)) = CC(C)(C(=O)*)c1cc(F)cc(C#N)c1; C20 diacid = O=C(O)CCCCCCCCCCCCCCCCCCC(=O)*; γGlu = O=C(O)[C@H](CCC(=O)[*:2])N[*:1]; X38 = CC(C)(C(=O)*)c1cc(O)cc(F)c1; X32 = CC(C)(CN[*:1])C(=O)[*:2]; X50 = CC(C)(N*)c1ccc(F)c(F)c1; Suc = O=C(CCC(=O)[*:2])[*:1]; AEEA = NCCOCCOCC(=O)O; Aib = CC(C)(N)C(=O)O; βAla = NCCC(=O)O

Experimental findings from patent US12281149B2, “Modulators of G-protein coupled receptors” (priority 2021, dated 2025) are described below.

Assay type in all cases: cell-based
Assay [1] deals with T1, GLP-1 receptor (Homo sapiens, UniProt P43220). The experiment in a line: HitHunter cAMP assay, GLP-1 receptor. As to conditions: for EC50: CHO cells stably expressing human GLP-1 receptor, cAMP accumulation, 30 min, read-out: EC50 GLP-1R; for Emax: CHO cells, cAMP, normalized to maximum signal from GLP-1 (high) and DMSO (low), read-out: Emax GLP-1R. In general terms: Changes in cAMP serve as a functional read-out for many G protein-coupled receptors.
T1 sequence (P43220 24-463): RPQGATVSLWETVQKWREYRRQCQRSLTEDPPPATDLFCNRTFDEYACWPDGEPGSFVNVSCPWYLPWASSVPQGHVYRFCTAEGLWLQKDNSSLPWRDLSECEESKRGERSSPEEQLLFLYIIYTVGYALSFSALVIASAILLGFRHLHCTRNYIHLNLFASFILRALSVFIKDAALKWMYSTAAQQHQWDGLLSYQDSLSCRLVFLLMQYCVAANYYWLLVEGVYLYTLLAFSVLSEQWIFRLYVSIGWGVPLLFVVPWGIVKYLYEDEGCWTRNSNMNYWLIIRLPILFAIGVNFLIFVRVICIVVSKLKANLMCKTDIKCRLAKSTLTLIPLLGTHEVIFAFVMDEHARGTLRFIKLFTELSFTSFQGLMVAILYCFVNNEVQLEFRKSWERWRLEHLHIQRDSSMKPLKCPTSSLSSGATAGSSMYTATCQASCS

In assay [2] the target is T2, GIP receptor (Homo sapiens, UniProt P48546).
T2 sequence (P48546 22-466): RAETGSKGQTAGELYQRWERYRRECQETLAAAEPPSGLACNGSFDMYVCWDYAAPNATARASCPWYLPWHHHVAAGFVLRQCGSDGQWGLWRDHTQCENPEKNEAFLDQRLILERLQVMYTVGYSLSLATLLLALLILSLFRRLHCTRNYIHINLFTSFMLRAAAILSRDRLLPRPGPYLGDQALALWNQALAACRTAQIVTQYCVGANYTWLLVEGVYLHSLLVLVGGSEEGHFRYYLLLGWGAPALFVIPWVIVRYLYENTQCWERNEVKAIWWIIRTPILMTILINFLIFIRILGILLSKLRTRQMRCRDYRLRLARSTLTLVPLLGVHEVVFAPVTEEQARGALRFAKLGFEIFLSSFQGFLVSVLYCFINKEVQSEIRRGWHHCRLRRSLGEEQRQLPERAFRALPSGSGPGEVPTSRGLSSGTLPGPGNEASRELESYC
The experiment in a line: HitHunter cAMP assay, GIP receptor. As to conditions: for EC50: CHO cells stably expressing GIP receptor, cAMP accumulation, 30 min, read-out: EC50 GIP-1R; for Emax: CHO cells, cAMP, normalized to maximum signal from GIP (high) and DMSO (low), read-out: Emax GIP-1R.

In assay [3] the target is T2, GIP receptor. As to the kind of experiment: PathHunter β-arrestin assay, GIP receptor. Also on record: host or cells: PathHunter CHO-K1 GIPR β-Arrestin Cell Line. As to conditions: β-arrestin-2 recruitment, PathHunter CHO-K1 GIPR β-Arrestin Cell Line, 90 min at 37° C.; normalized to GIP; read-out: GIPR β Arrestin EC50.
Assay [4] addresses T1, GLP-1 receptor. The experiment in a line: PathHunter β-arrestin assay, GLP-1 receptor. Further details: host or cells: PathHunter CHO-K1 GLP1R β-Arrestin Cell Line. As to conditions: β-arrestin-2 recruitment, PathHunter CHO-K1 GLP1R β-Arrestin Cell Line, 90 min at 37° C.; normalized to GLP-1; read-out: GLP-1R β Arrestin EC50.

On to `CC[C@H](C)[C@H](NC(=O)[C@H](CC(C)C)NC(=O)[C@H](Cc1c[nH]c2ccccc12)NC(=O)[C@H](CCC(N)=O)NC(=O)[C@@H](NC(=O)[C@H](Cc1ccccc1)NC(=O)[C@H](C)NC(=O)[C@H](CCCCNC(=O)COCCOCCNC(=O)COCCOCCNC(=O)CC[C@H](NC(=O)CCCCCCCCCCCCCCCCCCC(=O)O)C(=O)O)NC(=O)[C@H](CCC(N)=O)NC(=O)[C@H](C)NC(=O)[C@@H](NC(=O)[C@H](CCCCN)NC(=O)[C@H](CC(=O)O)NC(=O)[C@H](CC(C)C)NC(=O)C(C)(C)NC(=O)[C@@H](NC(=O)[C@H](CO)NC(=O)[C@H](Cc1ccc(O)cc1)NC(=O)[C@H](CC(=O)O)NC(=O)[C@H](CO)NC(=O)[C@@H](NC(=O)[C@H](Cc1ccccc1)NC(=O)[C@@H](NC(=O)CNC(=O)[C@H](CCC(=O)O)NC(=O)C(C)(C)CNC(=O)C(C)(C)c1cc(F)cc(C#N)c1)[C@@H](C)O)[C@@H](C)O)[C@@H](C)CC)[C@@H](C)CC)C(C)C)C(=O)N[C@@H](C)C(=O)NCC(=O)NCC(=O)N1CCC[C@H]1C(=O)N[C@@H](CO)C(=O)N[C@@H](CO)C(=O)NCC(=O)N[C@@H](C)C(=O)N1CCC[C@H]1C(=O)N1CCC[C@H]1C(=O)N1CCC[C@H]1C(=O)N[C@@H](CO)C(N)=O` [Compound 192] ({Isobutyryl(2-(3-CN-5-F-Ph))}-[X32]EGTFTSDYSI[Aib]LDKIAQK([AEEA-AEEA-γGlu-C20 diacid])AFVQWLIAGGPSSGAPPPS-NH2), for which the EC50 in assay [1] was 0.0001 to 0.001 µM; in assay [2], 0.001 to 0.01 µM; in assay [3] it was above 1 µM; in assay [4], above 1 µM. In addition, the Emax in assay [1] came to 101%; in assay [2], 104%.
Turning to `CC[C@H](C)[C@H](NC(=O)[C@H](CO)NC(=O)[C@H](Cc1ccc(O)cc1)NC(=O)[C@H](CC(=O)O)NC(=O)[C@H](CO)NC(=O)[C@@H](NC(=O)[C@H](Cc1ccccc1)NC(=O)[C@@H](NC(=O)CNC(=O)[C@H](CCC(=O)O)NC(=O)CCNC(=O)[C@@]1(c2ccccc2)CNC(=O)C1)[C@@H](C)O)[C@@H](C)O)C(=O)N[C@@H](Cc1ccc(O)cc1)C(=O)N[C@@H](CC(C)C)C(=O)N[C@@H](CC(=O)O)C(=O)N[C@@H](CCCCN)C(=O)N[C@@H](CCC(N)=O)C(=O)N[C@@H](C)C(=O)N[C@@H](C)C(=O)NC(C)(C)C(=O)N[C@@H](CCC(=O)O)C(=O)N[C@@H](Cc1ccccc1)C(=O)N[C@H](C(=O)N[C@@H](CC(N)=O)C(=O)N[C@@H](Cc1c[nH]c2ccccc12)C(=O)N[C@@H](CC(C)C)C(=O)N[C@@H](CC(C)C)C(=O)N[C@@H](C)C(=O)NCC(=O)NCC(=O)N1CCC[C@H]1C(=O)N[C@@H](CO)C(=O)N[C@@H](CO)C(=O)NCC(=O)N[C@@H](C)C(=O)N1CCC[C@H]1C(=O)N1CCC[C@H]1C(=O)N1CCC[C@H]1C(=O)N[C@@H](CO)C(=O)N[C@@H](CCCCNC(=O)COCCOCCNC(=O)COCCOCCNC(=O)CC[C@H](NC(=O)CCCCCCCCCCCCCCCCCCC(=O)O)C(=O)O)C(N)=O)C(C)C` (single isomer, unassigned) [Compound 125], the EC50 in assay [1] was 0.01 to 0.1 µM; in assay [2] it was 0.01 to 0.1 µM; in assay [3], above 1 µM; in assay [4] it was above 1 µM. The Emax is 101% in assay [1] and 105% in assay [2].
Consider `CC[C@H](C)[C@H](NC(=O)[C@H](CC(C)C)NC(=O)[C@H](Cc1c[nH]c2ccccc12)NC(=O)[C@H](CCC(N)=O)NC(=O)[C@@H](NC(=O)[C@H](Cc1ccccc1)NC(=O)[C@H](C)NC(=O)[C@H](CCCCNC(=O)COCCOCCNC(=O)COCCOCCNC(=O)CC[C@H](NC(=O)CCCCCCCCCCCCCCCCCCC(=O)O)C(=O)O)NC(=O)[C@H](CCC(N)=O)NC(=O)[C@H](C)NC(=O)[C@@H](NC(=O)[C@H](CCCCN)NC(=O)[C@H](CC(=O)O)NC(=O)[C@H](CC(C)C)NC(=O)C(C)(C)NC(=O)[C@@H](NC(=O)[C@H](CO)NC(=O)[C@H](Cc1ccc(O)cc1)NC(=O)[C@H](CC(=O)O)NC(=O)[C@H](CO)NC(=O)[C@@H](NC(=O)[C@H](Cc1ccccc1)NC(=O)[C@@H](NC(=O)CNC(=O)[C@H](CCC(=O)O)NC(=O)CCC(=O)NC(C)(C)c1ccc(F)c(F)c1)[C@@H](C)O)[C@@H](C)O)[C@@H](C)CC)[C@@H](C)CC)C(C)C)C(=O)N[C@@H](C)C(=O)NCC(=O)NCC(=O)N1CCC[C@H]1C(=O)N[C@@H](CO)C(=O)N[C@@H](CO)C(=O)NCC(=O)N[C@@H](C)C(=O)N1CCC[C@H]1C(=O)N1CCC[C@H]1C(=O)N1CCC[C@H]1C(=O)N[C@@H](CO)C(N)=O` [Compound 280] ({X50-Suc}-EGTFTSDYSI[Aib]LDKIAQK([AEEA-AEEA-γGlu-C20 diacid])AFVQWLIAGGPSSGAPPPS-NH2), for which the EC50 in assay [1] is 0.001 to 0.01 µM; in assay [2], 0.001 to 0.01 µM; in assay [3], above 1 µM; in assay [4], above 1 µM. The Emax stood at 90% in assay [1] and 114% in assay [2].
For `CC[C@H](C)[C@H](NC(=O)[C@H](CC(C)C)NC(=O)[C@H](Cc1c[nH]c2ccccc12)NC(=O)[C@H](CCC(N)=O)NC(=O)[C@@H](NC(=O)[C@H](Cc1ccccc1)NC(=O)[C@H](C)NC(=O)[C@H](CCCCNC(=O)COCCOCCNC(=O)COCCOCCNC(=O)CC[C@H](NC(=O)CCCCCCCCCCCCCCCCCCC(=O)O)C(=O)O)NC(=O)[C@H](CCC(N)=O)NC(=O)[C@H](C)NC(=O)[C@@H](NC(=O)[C@H](CCCCN)NC(=O)[C@H](CC(=O)O)NC(=O)[C@H](CC(C)C)NC(=O)C(C)(C)NC(=O)[C@@H](NC(=O)[C@H](CO)NC(=O)[C@H](Cc1ccc(O)cc1)NC(=O)[C@H](CC(=O)O)NC(=O)[C@H](CO)NC(=O)[C@@H](NC(=O)[C@H](Cc1ccccc1)NC(=O)[C@@H](NC(=O)CNC(=O)CC[C@H](NC(=O)CCNC(=O)C(C)(C)c1cc(F)cc(C#N)c1)C(=O)O)[C@@H](C)O)[C@@H](C)O)[C@@H](C)CC)[C@@H](C)CC)C(C)C)C(=O)N[C@@H](C)C(=O)NCC(=O)NCC(=O)N1CCC[C@H]1C(=O)N[C@@H](CO)C(=O)N[C@@H](CO)C(=O)NCC(=O)N[C@@H](C)C(=O)N1CCC[C@H]1C(=O)N1CCC[C@H]1C(=O)N1CCC[C@H]1C(=O)N[C@@H](CO)C(N)=O` [Compound 110] ({Isobutyryl(2-(3-CN-5-F-Ph))-βAla-γGlu}-GTFTSDYSI[Aib]LDKIAQK([AEEA-AEEA-γGlu-C20 diacid])AFVQWLIAGGPSSGAPPPS-NH2), the EC50 in assay [1] is 0.1 to 1 µM; in assay [2], 0.1 to 1 µM; in assay [3] it was above 1 µM; in assay [4], above 1 µM. The results for the Emax in assay [1] and in assay [2] were 31% and 32%, respectively.
In the case of `CC[C@H](C)[C@H](NC(=O)[C@H](CC(C)C)NC(=O)[C@H](Cc1c[nH]c2ccccc12)NC(=O)[C@H](CCC(N)=O)NC(=O)[C@@H](NC(=O)[C@H](Cc1ccccc1)NC(=O)[C@H](C)NC(=O)[C@H](CCCCNC(=O)COCCOCCNC(=O)COCCOCCNC(=O)CC[C@H](NC(=O)CCCCCCCCCCCCCCCCCCC(=O)O)C(=O)O)NC(=O)[C@H](CCC(N)=O)NC(=O)[C@H](C)NC(=O)[C@@H](NC(=O)[C@H](CCCCN)NC(=O)[C@H](CC(=O)O)NC(=O)[C@H](CC(C)C)NC(=O)C(C)(C)NC(=O)[C@@H](NC(=O)[C@H](CO)NC(=O)[C@H](Cc1ccc(O)cc1)NC(=O)[C@H](CC(=O)O)NC(=O)[C@H](CO)NC(=O)[C@@H](NC(=O)[C@H](Cc1ccccc1)NC(=O)[C@@H](NC(=O)CNC(=O)[C@H](CCC(=O)O)NC(=O)CCNC(=O)C(C)(C)c1cc(O)cc(F)c1)[C@@H](C)O)[C@@H](C)O)[C@@H](C)CC)[C@@H](C)CC)C(C)C)C(=O)N[C@@H](C)C(=O)NCC(=O)NCC(=O)N1CCC[C@H]1C(=O)N[C@@H](CO)C(=O)N[C@@H](CO)C(=O)NCC(=O)N[C@@H](C)C(=O)N1CCC[C@H]1C(=O)N1CCC[C@H]1C(=O)N1CCC[C@H]1C(=O)N[C@@H](CO)C(N)=O` [Compound 117] ({X38-βAla}-EGTFTSDYSI[Aib]LDKIAQK([AEEA-AEEA-γGlu-C20 diacid])AFVQWLIAGGPSSGAPPPS-NH2), the EC50 in assay [1] is 0.0001 to 0.001 µM; in assay [2] it was 0.001 to 0.01 µM; in assay [3] it was above 1 µM; in assay [4], above 1 µM. The Emax turned out to be 96% in assay [1] and 100% in assay [2].
